Experimental data from patent US10633389B2, “CARM1 inhibitors and uses thereof” (Epizyme, Inc., priority 2013, dated 2020).

Test system: asymmetric di-methyl PABP1 in RKO cells
Assay: RKO methylation assay, In Cell Western (ICW) for asymmetric di-methyl PABP1
Assay type: cell-based
Conditions: Homo sapiens, RKO, Cellular potencies, ICW PABP1me2a
Description: RKO adherent cells were purchased from ATCC (American Type Culture Collection), Manassas, Va., USA. DMEM/Glutamax medium, penicillin-streptomycin, heat inactivated fetal bovine serum, 0.05% trypsin and D-PBS were purchased from Life Technologies, Grand Island, N.Y., USA. Odyssey blocking buffer, 800 CW goat anti-rabbit IgG (H+L) antibody, and Licor Odyssey infrared scanner were purchased from Licor Biosciences, Lincoln, Nebr., USA. Asymmetric di-methyl PABP1 antibody was purchased from Cell Signaling Technology, Danvers, Mass., USA. Methanol was purchased from VWR, Franklin, Mass., USA. 10% Tween 20 was purchased from KPL, Inc., Gaithersburg, Md., USA. Paraformaldehyde (PFA) was purchased from EM Sciences. DRAQ5 was purchased from Biostatus Limited, Leicestershire, UK.
RKO adherent cells were maintained in growth medium (DMEM/Glutamax medium supplemented with 10% v/v heat inactivated fetal bovine serum and 100 units/mL penicillin-streptomycin) and cultured at 37° C. under 5% CO2.
Cell treatment, In Cell Western (ICW) for detection of asymmetric di-methyl PABP1 and DNA content: RKO cells were seeded in assay medium at a concentration of 30,000 cells per mL to a poly-D-lysine coated 384 well culture plate (BD Biosciences 356697) with 50 VL per well. Compound (100 nL) from a 96-well source plate was added directly to 384 well cell plate. Plates were incubated at 37° C., 5% CO2 for 48 hours. After two days of incubation, plates were brought to room temperature outside of the incubator for ten minutes and blotted on paper towels to remove cell media. Cells were fixed for 20 minutes at room temperature by adding 50 ul of 8% PFA followed by aspiration of supernatant with the Biotek EL406 plate washer. Cells were then permeabilized by addition of 50 μL of ice cold 100% methanol directly to each well and incubated for 30 min at room temperature. After 30 min, plates were transferred to a Biotek EL406 plate washer and washed 2 times with 100 μL per well of wash buffer (1×PBS). Next 60 μL per well of Odyssey blocking buffer (Odyssey Buffer with 0.1% Tween 20 (v/v)) were added to each plate and incubated 1 hour at room temperature. Blocking buffer was removed and 20 μL per well of primary antibody was added (asymmetric-methyl PABP1) diluted 1:400 in Odyssey buffer with 0.1% Tween 20 (v/v)) and plates were incubated overnight (16 hours) at 4° C. Plates were washed 5 times with 100 μL per well of wash buffer. Next 20 μL per well of secondary antibody was added (1:800 800 CW goat anti-rabbit IgG (H+L) antibody, 1:2000 DRAQ5 in Odyssey buffer with 0.1% Tween 20 (v/v)) and incubated for 1 hour at room temperature. The plates were washed 5 times with 100 μL per well wash buffer then 2 times with 100 μL per well of water. Plates were allowed to dry at room temperature then imaged on the Licor Odyssey machine which measures integrated intensity at 700 nm and 800 nm wavelengths. Both 700 and 800 channels were scanned.
First, the ratio for each well was determined by:
Each plate included fourteen control wells of DMSO only treatment (minimum inhibition) as well as fourteen control wells for maximum inhibition treated with 20 μM of a reference compound. The average of the ratio values for each control type was calculated and used to determine the percent […] for each test well in the plate. Reference compound was serially diluted three-fold in DMSO for a total of nine test concentrations, beginning at 20 μM.
Percent inhibition was determined and IC50 curves were generated using triplicate wells per concentration of compound. […]

| Structure (SMILES) | IC50 [µM] |
| --- | --- |
| CNC[C@H](O)COc1ccc(Cl)c(-c2nc(NC[C@H]3COCCN3C(=O)OC)c(C)c(-c3c(C)noc3C)n2)c1 [Example 58-3] | < 5 |
| CNCC(O)COc1cccc(-c2nc(NC3CCS(=O)(=O)CC3)c(C)c(-c3c(C)noc3C)n2)c1 (stereo not shown) [Example 59-1a] | 10 to 20 |
| CCOC(=O)N1CCOC[C@H]1CNc1nc(-c2cc(OC[C@@H](O)CNC)ccc2F)nc(-c2c(C)noc2C)c1C [Example 59-3] | < 5 |
| CNCC(O)COc1cccc(-c2nc(NC3CCS(=O)(=O)CC3)cc(-c3c(C)noc3C)n2)c1 (stereo not shown) [Example 60-1a] | 10 to 20 |
| CCOC(=O)N1CCOC[C@H]1CNc1nc(-c2cc(OC[C@H](O)CNC)ccc2F)nc(-c2c(C)noc2C)c1C [Example 60-3] | < 5 |
| CNCC(O)COc1cccc(-c2nc(-c3c(C)noc3C)cc(N(C)c3cnc(C)nc3)n2)c1 (stereo not shown) [Example 61-1a] | 10 to 20 |
| CCOC(=O)N1CCOC[C@@H]1CNc1nc(-c2cc(OC[C@@H](O)CNC)ccc2F)nc(-c2c(C)noc2C)c1C [Example 61-3] | < 5 |
| CCOC(=O)N1CCOC[C@@H]1CNc1nc(-c2cc(OC[C@H](O)CNC)ccc2F)nc(-c2c(C)noc2C)c1C [Example 62-3] | < 5 |
| CNC[C@H](O)COc1ccc(F)c(-c2nc(N[C@H]3CCN(C(=O)OC)C[C@H]3F)c(C)c(-c3c(C)noc3C)n2)c1 [Example 63-3] | < 5 |
| CNC[C@@H](O)COc1ccc(F)c(-c2nc(N[C@H]3CCN(C(=O)OC)C[C@H]3F)c(C)c(-c3c(C)noc3C)n2)c1 [Example 64-3] | < 5 |
| CNC[C@H](O)COc1ccc(Cl)c(-c2nc(N[C@H]3CCN(C(=O)OC)C[C@H]3F)c(C)c(-c3c(C)noc3C)n2)c1 [Example 65-3] | < 5 |
| CNCC(O)COc1cccc(-c2nc(N[C@@H]3CCOC3)c(C)c(-c3c(C)noc3C)n2)c1 (stereo partly shown) [Example 66-1a] | < 5 |
| CNC[C@H](O)COc1ccc(Cl)c(-c2nc(N[C@@H]3CCN(C(=O)OC)[C@@H](C)C3)c(C)c(-c3c(C)noc3C)n2)c1 [Example 66-3] | < 5 |
| CNCC(O)COc1cccc(-c2nc(N[C@H]3C[C@@](C)(O)C3)cc(-c3c(C)noc3C)n2)c1 (stereo partly shown) [Example 67-1a] | 10 to 20 |
| CCS(=O)(=O)N1CCC(Nc2nc(-c3cc(OC[C@@H](O)CNC)ccc3Cl)nc(-c3c(C)noc3C)c2C)CC1 [Example 67-3] | < 5 |
| CNCC(O)COc1cccc(-c2nc(-c3c(C)noc3C)cc(N3CCN(CCF)CC3)n2)c1 (stereo not shown) [Example 68-1a] | 5 to 10 |
| CNC[C@@H](O)COc1cccc(-c2nc(N[C@@H]3CCN(C4CC4)C[C@@H]3F)c(Cl)c(-c3c(C)noc3C)n2)c1 [Example 68-3] | < 5 |
| CNCC(O)COc1cccc(-c2nc(-c3c(C)noc3C)cc(N3CC[C@H](S(C)(=O)=O)C3)n2)c1 (stereo partly shown) [Example 69-1a] | 10 to 20 |
| CNC[C@H](O)COc1ccc(Cl)c(-c2nc(-c3c(C)noc3C)cc(N3CC4(CCN(C5CC5)CC4)C3)n2)c1 [Example 69-3] | < 5 |
| CNCC(O)COc1cc(Cl)cc(-c2nc(-c3ccn4cnnc4c3)c(C)c(N(C)C3CCOCC3)n2)c1 (stereo not shown) [Example 70-1] | 10 to 20 |
| CNCC(O)COc1cccc(-c2nc(-c3c(C)noc3C)cc(N3CCN(C(C)=O)C4(CC4)C3)n2)c1 (stereo not shown) [Example 70-1a] | < 5 |
| CCS(=O)(=O)N1CCC(Nc2nc(-c3cccc(OCC(O)CNC)c3)nc(-c3c(C)nsc3C)c2C)CC1 (stereo not shown) [Example 70-3] | < 5 |
| CNCC(O)COc1cccc(-c2nc(-c3c(C)noc3C)c(C)c(N3CC[C@H](N(C)C(C)=O)C3)n2)c1 (stereo partly shown) [Example 71-1a] | < 5 |

More lines, now with the values ahead:

| IC50 [µM] | Structure (SMILES) |
| --- | --- |
| 10 to 20 | CCS(=O)(=O)N1CCOC[C@@H]1CNc1nc(-c2cccc(OCC(O)CNC)c2)nc(-c2c(C)nsc2C)c1C (stereo partly shown) [Example 71-3] |
| < 5 | CNCC(O)COc1cccc(-c2nc(Nc3cnc(OC)nc3)cc(-c3c(C)noc3C)n2)c1 (stereo not shown) [Example 72-1a] |
| < 5 | CNC[C@H](O)COc1ccc(F)c(-c2nc(NC3CCOCC3)c(C)c(-c3c(C)noc3C)n2)c1 [Example 72-3] |
| < 5 | CNC[C@H](O)COc1ccc(F)c(-c2nc(NC3CCOC(C)C3)c(C)c(-c3c(C)noc3C)n2)c1 (stereo partly shown) [Example 73-3] |
| 5 to 10 | CNCC(O)COc1cc(N)cc(-c2nc(NC3CCOCC3)c(C)c(-c3c(C)noc3C)n2)c1 (stereo not shown) [Example 74-1a] |
| < 5 | CNC[C@H](O)COc1ccc(Cl)c(-c2nc(-c3c(C)noc3C)c(C)c(N3CCN(C)C(C(F)F)C3)n2)c1 (stereo partly shown) [Example 74-3] |
| < 5 | CNCC(O)COc1cc(OC)cc(-c2nc(NC3CCOCC3)c(C)c(-c3c(C)noc3C)n2)c1 (stereo not shown) [Example 75-1a] |
| < 5 | CNC[C@H](O)COc1ccc(Cl)c(-c2nc(-c3c(C)noc3C)c(C)c(N3CCC4(CC3)CN(S(C)(=O)=O)C4)n2)c1 [Example 75-3] |
| 10 to 20 | CNCC(O)COc1cc(O)cc(-c2nc(NC3CCOCC3)c(C)c(-c3c(C)noc3C)n2)c1 (stereo not shown) [Example 76-1a] |
| < 5 | CNC[C@H](O)COc1ccc(F)c(-c2nc(-c3c(C)noc3C)c(C)c(N3CCC4(CC3)CN(S(C)(=O)=O)C4)n2)c1 [Example 76-3] |
| < 5 | CCOC(=O)N1CCN(c2nc(-c3cccc(OCC(O)CNC)c3)nc(-c3c(C)noc3C)c2C)CC1 (stereo not shown) [Example 77-1a] |
| < 5 | CCN1CCC[C@@H]1CNc1nc(-c2cc(OC[C@@H](O)CNC)ccc2Cl)nc(-c2c(C)noc2C)c1C [Example 77-3] |
| 5 to 10 | CNCC(O)COc1cccc(-c2nc(NCC3CCOCC3)cc(-c3c(C)noc3C)n2)c1 (stereo not shown) [Example 78-1a] |
| < 5 | CNCC(O)COc1cccc(-c2nc(-c3c(C)noc3C)cc(N3CCN(CC(F)F)CC3)n2)c1 (stereo not shown) [Example 79-1a] |
| 10 to 20 | CNCC(O)COc1cccc(-c2nc(-c3c(C)noc3C)cc(N3C[C@@H]4C[C@H]3CN4S(C)(=O)=O)n2)c1 (stereo partly shown) [Example 80-1a] |
| < 5 | CNCC(O)COc1cccc(-c2nc(-c3c(C)noc3C)cc(N3CCN(C(=O)OC)CC3)n2)c1 (stereo not shown) [Example 81-1a] |
| < 5 | CNC[C@H](O)COc1ccc(Cl)c(-c2nc(NCCC(C)(C)OC)c(C)c(-c3c(C)noc3C)n2)c1 [Example 82-3] |
| < 5 | CNC[C@H](O)COc1ccc(F)c(-c2nc(NCCC(C)(C)OC)c(C)c(-c3c(C)noc3C)n2)c1 [Example 83-3] |
| < 5 | CNCC(O)COc1cccc(-c2nc(-c3c(C)noc3C)c(C)c(N3C[C@@H]4C[C@H]3CN4C)n2)c1 (stereo partly shown) [Example 84-1a] |
| < 5 | CNC[C@H](O)COc1ccc(F)c(-c2nc(-c3c(C)noc3C)c(C)c(N3CCC4(CC3)CN(C(=O)OC)C4)n2)c1 [Example 84-3] |
| < 5 | CNCC(O)COc1cccc(-c2nc(NC3(C)CCOCC3)cc(-c3c(C)noc3C)n2)c1 (stereo not shown) [Example 85-1a] |
| < 5 | CNC[C@H](O)COc1ccc(Cl)c(-c2nc(-c3c(C)noc3C)c(C)c(N3CCC4(CC3)CN(C(=O)OC)C4)n2)c1 [Example 85-3] |
| 5 to 10 | CNCC(O)COc1cccc(-c2nc(-c3c(C)noc3C)c(C)c(N(C)CC3CCOCC3)n2)c1 (stereo not shown) [Example 86-1a] |
| < 5 | CNC[C@H](O)COc1ccc(Cl)c(-c2nc(-c3c(C)noc3C)c(C)c(N3Cc4cc(F)cnc4C3)n2)c1 [Example 86-3] |
| < 5 | CNCC(O)COc1cccc(-c2nc(-c3c(C)noc3C)cc(N(C)CC3CCOCC3)n2)c1 (stereo not shown) [Example 87-1a] |
| < 5 | CNC[C@H](O)COc1ccc(Cl)c(-c2nc(-c3c(C)noc3C)c(C)c(N3Cc4cc(Cl)cnc4C3)n2)c1 [Example 87-3] |
